Laboratory results from US8937167B2 (Washington University, priority 2009, dated 2015).
Read-outs that look alike come from different tables or passages of the source.

Tests used:
FimH [1] = biological target: FimH (Escherichia coli, UniProt Q1R2J4); settings: for HAI Titer EC>50: Table 21;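 for all read-outs here: hemagglutination inhibition of guinea pig erythrocytes agglutinated by type 1 piliated uropathogenic E. coli via FimH mannose binding, quantified through serial dilutions of compound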
UTI89 biofilm = assay: UTI89 type 1 dependent biofilm formation (inhibition/prevention) assay on PVC, crystal violet; format: cell-based, uropathogenic E. coli UTI89; settings: Escherichia coli
Method: In yet other embodiments, activity of the compound may be measured using the ability of the compound to prevent or disrupt biofilm formation.
UTI89 biofilm was grown in LB+/− mannoside for 24 h at 22° C. in PVC plates and quantitated using crystal violet. UTI89 biofilm for confocal microscopy was grown in LB for 24 h at 22° C. on PVC coverslips. Mannoside was then added and biofilm was grown for an additional 16 h. Coverslips were then washed in PBS, fixed in 2% paraformaldehyde and stained with SYTO9 prior to confocal microscopy. For all animal experiments UTI89 or PBC-1 was grown 2×24 h statically in LB at 37° C. and inoculated at a dose of 1×10^7 bacteria in 50 μl. All mice used were female C3H/HeN (Jackson). For the pretreatment studies, bacteria were incubated with mannoside for 20 min prior to inoculation into the mouse. […] For CFU counts, bladders were harvested at 6 hpi and placed in 1 mL PBS. Bladders were then homogenized, diluted and plated on LB. After growth at 37° C. overnight, bacterial counts were determined. LacZ staining and gentamicin protection assays were performed at 6 hpi. […] Water was changed daily with fresh antibiotics. Standard growth curve assays and hemagglutination assays were performed with TMP-SMZ. All statistical analysis performed was a two-tailed Mann-Whitney U test.
(§1) Biofilm assay. UTI89 was grown in LB broth in wells of PVC microtiter plates at 23° C. in the presence of individual mannosides at varying concentrations. After 48 h of growth, wells were rinsed with water and stained with crystal violet for quantification as described. For biofilm disruption activity in PVC plates, UTI89 was grown in LB broth in wells of PVC microtiter plates at 23° C. After 24 h of growth, mannoside was added and biofilms were grown for an additional 16 h. Wells were then rinsed, stained with crystal violet and quantified. For biofilm disruption activity on PVC coverslips, UTI89 was grown in LB broth in 50 mL conicals containing PBC coverslips at 23° C. After 24 h of growth, 0.3 μM ZFH-2056 was added and biofilm was grown for an additional 16 h.
UTI89 biofilm was grown in LB+/− mannoside for 24 h at 22° C. in PVC plates and quantified using crystal violet. UTI89 biofilm for confocal microscopy was grown in LB for 24 h at 22° C. on PVC coverslips followed by mannoside treatment for 16 h. For all animal experiments UTI89 or PBC-1 was grown 2×24 h statically in LB at 37° C. and inoculated at a dose of 1×10^7 bacteria in 50 μl. All mice used were female C3H/HeN (Harlan). For the chronic UTI model, mice were infected for 2 weeks prior to treatment with mannoside. […] For oral dosing, 100 μl of 10 mg/ml (50 mg/kg) or 20 mg/ml (100 mg/kg) mannoside in 8% DMSO was inoculated with a gavage needle 30 min prior to inoculation of bacteria. […] For CFU counts, bladders were harvested at 6 hpi and placed in 1 mL PBS. Bladders were then homogenized, diluted and plated on LB. After growth at 37° C. overnight, bacterial counts were determined. LacZ staining and gentamicin protection assays were performed at 6 hpi. […] Water was changed daily with fresh antibiotics. Standard growth curve and hemagglutination assays were performed. All statistical analysis performed was a two-tailed Mann-Whitney U test. […] Compounds 7-10 were prepared using slightly modified procedures. All compounds are >95% pure as determined by HPLC/MS and ^1H NMR.
as §1, with “UTI89” for “Biofilm assay. UTI89”, “For biofilm disruption activity on PVC coverslips, UTI89 was grown in LB broth in 50 mL conicals containing PBC coverslips at 23° C. After 24 h of growth, 0.3 μM ZFH-2056 was added and biofilm was grown for an additional 16 h.” left out

FimH [2] = biological target: FimH (Escherichia coli, UniProt P08191); assay: biochemical; format: binding, E. coli; settings: Table 13; competition with FAM mannoside 20; read-out: FP Binding EC50
Text: In order to more accurately determine the relative contributions of both binding affinity to FimH versus other compound properties to the potency seen in the cellular HA titer assay, a high-throughput fluorescence polarization (FP) (or anisotropy) competitive binding assay was developed using a fluorescent-labeled mannoside ligand shown in Scheme 4.
A fluorescent polarization assay was developed and miniaturized to monitor the direct binding of a synthesized fluorescently labeled butyl mannose derivative to the FimH receptor as well as competitive displacement by other synthetic mannosides. This fluorescent polarization assay provides a rapid method for monitoring improvements to receptor affinity during the synthetic process, as well as providing Kd binding affinity measurements.

[3] = read-out: Biofilm Prevention IC50
[4] = read-out: Biofilm IC50 (approximated)
[5] = read-out: Biofilm IC50 [calculated]

CCCCOC1OC(CO)C(O)C(O)C1O (stereo not drawn) [Compound 1ZFH84]
HAI Titer EC>50 (FimH [1]; ZFH/JWJ codes): 125.000 µM
IC50 (UTI89 biofilm; [3]): ~500 µM

CNC(=O)c1cccc(-c2ccc(OC3O[C@@H](CO)[C@@H](O)[C@H](O)[C@H]3O)c(Cl)c2)c1 (stereo partly drawn) [Compound 4ZFH170, 3-[3-chloro-4-[(3R,4S,5S,6S)-3,4,5-trihydroxy-6-(hydroxymethyl)tetrahydropyran-2-yl]oxy-phenyl]-N-methyl-benzamide]
HAI Titer EC>90 (FimH [1]): 0.125 µM
HAI Titer EC>50 (FimH [1]; ZFH/JWJ codes): 0.125 µM
HAI Titer EC>90 (FimH [1]; Table 22, ZFH/JWJ codes): 0.125 µM
IC50 (UTI89 biofilm; [3]): 0.523 µM

COC(=O)c1cccc(-c2ccc(OC3O[C@@H](CO)[C@@H](O)[C@H](O)[C@H]3O)c(C)c2)c1 (stereo partly drawn) [Compound 4ZFH224, methyl 3-[3-methyl-4-[(3R,4S,5S,6S)-3,4,5-trihydroxy-6-(hydroxymethyl)tetrahydropyran-2-yl]oxy-phenyl]benzoate]
HAI Titer EC>90 (FimH [1]): 0.125 µM
HAI Titer EC>50 (FimH [1]; ZFH/JWJ codes): 0.125 µM
HAI Titer EC>90 (FimH [1]; Table 22, ZFH/JWJ codes): 0.125 µM
IC50 (UTI89 biofilm; [3]): 0.333 µM

CCCc1ccc(OC2OC(CO)C(O)C(O)C2O)cc1 (stereo not drawn) [Compound 1ZFH179, 2-(hydroxymethyl)-6-(4-propylphenoxy)tetrahydropyran-3,4,5-triol]
HAI Titer EC>90 (FimH [1]): 15.000 µM
IC50 (UTI89 biofilm; [4]): 10 to 100 µM
IC50 (UTI89 biofilm; [5]): ~55 µM

O=C1Cc2cc(OC3OC(CO)C(O)C(O)C3O)ccc2O1 (stereo not drawn) [Compound 1ZFH231, 5-[3,4,5-trihydroxy-6-(hydroxymethyl)tetrahydropyran-2-yl]oxy-3H-benzofuran-2-one]
HAI Titer EC>90 (FimH [1]): 8.000 µM
IC50 (UTI89 biofilm; [4]): ~25 µM

O=C1NC2C=CC(OC3OC(CO)C(O)C(O)C3O)=CC2O1 (stereo not drawn) [Compound 1ZFH256, 6-[3,4,5-trihydroxy-6-(hydroxymethyl)tetrahydropyran-2-yl]oxy-3a,7a-dihydro-3H-1,3-benzoxazol-2-one]
HAI Titer EC>90 (FimH [1]): 4.000 µM
IC50 (UTI89 biofilm; [4]): 10 to 25 µM
IC50 (UTI89 biofilm; [5]): ~15 µM

Cc1cc(=O)oc2cc(OC3OC(CO)C(O)C(O)C3O)ccc12 [4-methylumbellferyl-α-D-mannoside, reference compound]
IC50 (UTI89 biofilm; [5]): 1.7 µM

CCc1ccc(OC2OC(CO)C(O)C(O)C2O)cc1 (stereo not drawn) [Compound 1ZFH178, 2-(4-ethylphenoxy)-6-(hydroxymethyl)tetrahydropyran-3,4,5-triol]
HAI Titer EC>90 (FimH [1]): 23.000 µM
IC50 (UTI89 biofilm; [4]): 10 to 100 µM
IC50 (UTI89 biofilm; [5]): ~90 µM

COC(=O)Cc1ccc(OC2OC(CO)C(O)C(O)C2O)cc1 (stereo not drawn) [Compound 1ZFH171, methyl 2-[4-[3,4,5-trihydroxy-6-(hydroxymethyl)tetrahydropyran-2-yl]oxyphenyl]acetate]
HAI Titer EC>90 (FimH [1]): 30.000 µM
IC50 (UTI89 biofilm; [4]): ~100 µM

COC(=O)c1cccc(-c2ccc(O[C@H]3O[C@H](CO)[C@@H](O)[C@H](O)[C@@H]3O)c(OC)c2)c1 [Compound 4e, Methyl 3-[3-methoxy-4-[(2R,3S,4S,5S,6R)-3,4,5-trihydroxy-6-(hydroxymethyl)tetrahydropyran-2-yl]oxy-phenyl]benzoate]
HAI Titer EC>90 (FimH [1]; Table 17, Examples 30-36 numbering): 0.19 µM
IC50 (UTI89 biofilm; [3]): 0.89 µM

COC(=O)c1sc(-c2ccc(OC3OC(CO)C(O)C(O)C3O)cc2)cc1NC(N)=O (stereo not drawn) [Compound 4ZFH52]
HAI Titer EC>50 (FimH [1]; ZFH/JWJ codes): 0.016 µM
IC50 (UTI89 biofilm; [3]): 0.181 µM

CCCCO[C@H]1O[C@H](CO)[C@@H](O)[C@H](O)[C@@H]1O [Butylman]
EC50 (FimH [2]): 0.245 µM

COC(=O)c1cccc(-c2ccc(OC3O[C@@H](CO)[C@@H](O)[C@H](O)[C@H]3O)c(OC)c2)c1 (stereo partly drawn) [Compound 4ZFH228, methyl 3-[3-methoxy-4-[(3R,4S,5S,6S)-3,4,5-trihydroxy-6-(hydroxymethyl)tetrahydropyran-2-yl]oxy-phenyl]benzoate]
HAI Titer EC>90 (FimH [1]): 0.188 µM
HAI Titer EC>50 (FimH [1]; ZFH/JWJ codes): 0.188 µM
HAI Titer EC>90 (FimH [1]; Table 22, ZFH/JWJ codes): 0.188 µM
IC50 (UTI89 biofilm; [3]): 0.886 µM

OCC1OC(n2cc(-c3ccccc3)nn2)C(O)C(O)C1O (stereo not drawn) [Compound 4ZFH105, 2-(hydroxymethyl)-6-(4-phenyltriazol-1-yl)tetrahydropyran-3,4,5-triol]
HAI Titer EC>90 (FimH [1]): 32.000 µM

COC(=O)c1cccc(-c2ccc(OC3OC(CO)C(O)C(O)C3O)cc2C(=O)OC)c1 (stereo not drawn) [Compound 2ZFH244, methyl 2-(3-methoxycarbonyl-phenyl)-5-[3,4,5-trihydroxy-6-(hydroxymethyl)tetrahydropyran-2-yl]oxy-benzoate]
HAI Titer EC>90 (FimH [1]): 1.000 µM

CNC(=O)c1cccc(-c2ccc(OC3OC(CO)C(O)C(O)C3O)cc2C(=O)NC)c1 (stereo not drawn) [Compound 2ZFH266, N-methyl-2-[3-(methylcarbamoyl)phenyl]-5-[3,4,5-trihydroxy-6-(hydroxymethyl)tetrahydropyran-2-yl]oxy-benzamide]
HAI Titer EC>90 (FimH [1]): 12.000 µM

OCC1OC(Oc2ccc(-c3cccc(O)c3)cc2)C(O)C(O)C1O (stereo not drawn) [Compound 3ZFH44, 2-(hydroxymethyl)-6-[4-(3-hydroxyphenyl)phenoxy]tetrahydropyran-3,4,5-triol]
HAI Titer EC>90 (FimH [1]): 4.000 µM

CS(=O)(=O)Nc1ccccc1-c1ccc(OC2OC(CO)C(O)C(O)C2O)cc1 (stereo not drawn) [Compound 3ZFH163, N-[2-[4-[3,4,5-trihydroxy-6-(hydroxymethyl)tetrahydropyran-2-yl]oxyphenyl]phenyl]methanesulfonamide]
HAI Titer EC>90 (FimH [1]): 12.000 µM

NCCOCCOCCNC(=O)c1cc(-c2ccc(OC3OC(CO)C(O)C(O)C3O)cc2)cc([N+](=O)[O-])c1 (stereo not drawn) [Compound 3ZFH245, N-[2-[2-(2-aminoethoxy)ethoxy]ethyl]-3-nitro-5-[4-[3,4,5-trihydroxy-6-(hydroxymethyl)tetrahydropyran-2-yl]oxyphenyl]benzamide]
HAI Titer EC>90 (FimH [1]): 0.25 µM

COc1cccc(-c2ccc(OC3OC(CO)C(O)C(O)C3O)cc2)c1 (stereo not drawn) [Compound 3ZFH190, 2-(hydroxymethyl)-6-[4-(3-methoxyphenyl)phenoxy]tetrahydropyran-3,4,5-triol]
HAI Titer EC>90 (FimH [1]): 1.500 µM

CCCCO[C@H]1O[C@H](CO)[C@@H](O)[C@H](O)[C@@H]1O [butyl-α-D-mannoside, reference compound]
EC90 (FimH [1]; read-out: HAI Titer EC90): 125 µM

COC(=O)c1cc(-c2ccc(OC3OC(CO)C(O)C(O)C3O)cc2)ccc1NC(C)=O (stereo not drawn) [Compound 4ZFH308]
HAI Titer EC>50 (FimH [1]; ZFH/JWJ codes): 0.250 µM

CNC(=O)c1cncc(-c2ccc(OC3OC(CO)C(O)C(O)C3O)cc2)c1 (stereo not drawn)
HAI Titer EC>90 (FimH [1]): 0.500 µM

COC(=O)c1sc(-c2ccc(OC3OC(CO)C(O)C(O)C3O)cc2)cc1NC(N)=O (stereo not drawn) [Compound 4ZFH52-JJ, methyl 5-[4-[3,4,5-trihydroxy-6-(hydroxymethyl)tetrahydropyran-2-yl]oxyphenyl]-3-ureido-thiophene-2-carboxylate]
HAI Titer EC>90 (FimH [1]): 0.016 µM

COC(=O)COC1OC(CO)C(O)C(O)C1O (stereo not drawn) [Compound 1ZFH74]
HAI Titer EC>50 (FimH [1]; ZFH/JWJ codes): 500.000 µM

OCC1OC(Oc2ccc(-c3cccnc3)cc2)C(O)C(O)C1O (stereo not drawn) [Compound 3ZFH93, 2-(hydroxymethyl)-6-[4-(3-pyridyl)phenoxy]tetrahydropyran-3,4,5-triol]
HAI Titer EC>90 (FimH [1]): 2.000 µM

NC(=O)Nc1csc(-c2ccc(OC3OC(CO)C(O)C(O)C3O)cc2)c1 (stereo not drawn) [Compound 4ZFH303]
HAI Titer EC>50 (FimH [1]; ZFH/JWJ codes): 1.000 µM

CN1CCN(C(=O)c2cccc(-c3ccc(OC4OC(CO)C(O)C(O)C4O)cc3)c2)CC1 (stereo not drawn) [Compound 3ZFH261, (4-methylpiperazin-1-yl)-[3-[4-[3,4,5-trihydroxy-6-(hydroxymethyl)tetrahydropyran-2-yl]oxyphenyl]phenyl]methanone]
HAI Titer EC>90 (FimH [1]): 4.000 µM
